In US20040106545A1, “Compounds and methods for modulating cell adhesion” (priority 1996, published 2004):
Entries after “also recorded” stand apart in the source; their conditions may differ. Positions of bridges follow the written chain, without caps; N, C: chain ends. Residues, ends and D or L forms follow the SMILES beside them.

Legend:
[1] = tested on: Madin Darby canine kidney (MDCK) cells; type: cell-based; conditions: for EC50, decrease of electrical resistance across MDCK cell monolayer: 18 hours
Method in brief: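 MDCK monolayers, grown in DMEM with 5% FCS from 300,000 cells per insert, exposed to modulating agent in medium (e.g., 0.5 mg/ml final for 24 hours). Transepithelial electrical resistance measured as an index of tight junction formation.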

[2] = tested on: NRK cells; experiment: Disruption of normal rat kidney (NRK) cell adhesion, E-cadherin immunofluorescence; type: cell-based; conditions: 1 mg/mL, 48 hours
Description: Within another such assay, the effect of a modulating agent on normal rat kidney (NRK) cells may be evaluated. According to a representative procedure, NRK cells (ATCC #1571-CRL) may be plated at 10-20,000 cells per 35 mm tissue culture flasks containing DMEM with 10% FCS and sub-cultured periodically (Laird et al., J. Cell Biol. 131:1193-1203, 1995). Cells may be harvested and replated in 35 mm tissue culture flasks containing 1 mm coverslips and incubated until 50-65% confluent (24-36 hours). At this time, coverslips may be transferred to a 24-well plate, washed once with fresh DMEM and exposed to modulating agent at a concentration of, for example, 1 mg/mL for 24 hours. Fresh modulating agent may then be added, and the cells left for an additional 24 hours. Cells may be fixed with 100% methanol for 10 minutes and then washed three times with PBS. Coverslips may be blocked for 1 hour in 2% BSA/PBS and incubated for a further 1 hour in the presence of mouse anti-E-cadherin antibody (Transduction Labs, 1:250 dilution). Primary and secondary antibodies may be diluted in 2% BSA/PBS. Following incubation in the primary antibody, coverslips may be washed three times for 5 minutes each in PBS and incubated for 1 hour with donkey anti-mouse antibody conjugated to fluorescein (diluted 1:200). Following further washes in PBS (3×5 min) coverslips can be mounted and viewed by confocal microscopy.
NRK cells (ATCC #1571-CRL) were plated at 10-20,000 cells per 35 mm tissue culture flasks containing DMEM with 10% FCS and sub-cultured periodically (Laird et al., J. Cell Biol. 131:1193-1203, 1995). Cells were harvested and replated in 35 mm tissue culture flasks containing 1 mm coverslips and incubated until 50-65% confluent (24-36 hours). At this time, coverslips were transferred to a 24-well plate, washed once with fresh DMEM and exposed to cyclic peptide solutions (N—Ac-CHAVC-NH2 (SEQ ID NO:10) and N—Ac-CHGVC-NH2 (SEQ ID NO:11)) at a concentration of 1 mg/mL for 24 hours. Fresh peptide solutions were then added and the cells were left for an additional 24 hours. Cells were fixed with 100% methanol for 10 minutes and then washed three times with PBS. Coverslips were blocked for 1 hour in 2% BSA/PBS and incubated for a further 1 hour in the presence of mouse anti-E-cadherin antibody (Transduction Labs, Lexington, Ky.; 1:250 dilution). Primary and secondary antibodies were diluted in 2% BSA/PBS. Following incubation in the primary antibody, coverslips were washed three times for 5 minutes each in PBS and incubated for 1 hour with donkey anti-mouse antibody conjugated to fluorescein (Jackson Immuno Research, West Grove, Pa.; diluted 1:200). Following a further wash in PBS (3×5 min) coverslips were mounted and viewed by confocal microscopy.

[3] = tested on: A1N4 human breast epithelial cells; experiment: Disruption of breast epithelial cell adhesion, E-cadherin staining; type: cell-based; conditions: 500 μg/mL, 48 hours
Description: A1N4 human breast epithelial cells (kindly provided by Martha Stampfer, Lawrence Berkeley Laboratory, Berkeley, Calif.) were plated on glass coverslips and cultured in F12/DME containing 0.5% FCS and 10 ng/mL EGF for 24 hours. Fresh medium containing the cyclic peptides (final concentration 500 μg/mL media) N—Ac-CHAVC-NH2 (SEQ ID NO:10) or N—Ac-CHGVC-NH2 (SEQ ID NO:11) was then added. Following 24 hours of culture in the presence of the peptides, the medium was removed and fresh medium containing the peptides was added. The cells were fixed 24 hours later with cold methanol and stored in phosphate buffered saline (PBS).
Coverslips were blocked for 1 hour in 3% ovalbumin/PBS and incubated for a further 1 hour in the presence of 1 μg/mL mouse anti-E-cadherin antibody (Zymed, Gaithersburg, Md.). Primary and secondary antibodies were diluted in PBS containing 6% normal goat serum. Following incubation in the primary antibody, coverslips were washed 3 times for 5 minutes each in PBS and incubated for 1 hour with goat anti-mouse conjugated to fluorescein (Kiekegard and Perry, South San Francisco, Calif.) diluted 1:100. Following a further wash in PBS (3×5 minutes) coverslips were mounted in Vectashield (Vector Labs, Burlingame, Calif.) and viewed with a Zeiss infinity corrected microscope.

[4] = Cytotoxicity, MTT assay, HUVEC; type: cell-based; conditions: human, HUVEC (human umbilical vein endothelial cells), read-out: HUVEC Cytotox (IC50)
Description: N—Ac-CHAVC-NH2 (SEQ ID NO:10) and the control peptide N—Ac-CHGVC-NH2 (SEQ ID NO:11) were evaluated for possible cytotoxic effects on human microvascular endothelial (HMVEC; Clonetics), human umbilical vein endothelial (HUVEC; ATCC #CRL-1730), IAFp2 (human fibroblast cell line; Institute Armand-Frapier, Montreal, Quebec), WI-38 (human fibroblast cell line; ATCC #CCL-75), MDA-MB231 (human breast cancer cell line; ATCC #HTB-26), and PC-3 (human prostate cancer cell line; ATCC #CRL-1435) cells utilizing the MTT assay (Plumb et al., Cancer Res. 49:4435-4440, 1989). Neither of the peptides was cytotoxic at concentrations up to and including 100 μM. Similarly, neither of the peptides was capable of inhibiting the proliferation of the above cell lines at concentrations up to 100 μM, as judged by ^3H-thymidine incorporation assays.

[5] = Cytotoxicity, MTT assay, MDA-MB231; type: cell-based, human; conditions: human, MTT assay, read-out: MDA-MB231 Cytotox (IC50)
Method in brief: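 Peptide concentrations reached 100 μM. Both an MTT cytotoxicity read-out and ^3H-thymidine incorporation for proliferation were used.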

SMILES	EC50, decrease of electrical resistance across MDCK cell monolayer [1]	effect on electrical resistance across MDCK cells (in words) [1]	E-cadherin expression of NRK cells (immunofluorescence) [2]	disruption of NRK cell adhesion [2]	E-cadherin staining and monolayer of A1N4 cells [3]	IC50 [4]	IC50 ([5]; MDA-MB231 breast cancer cell line)	IC50 ([5]; MDA-MB231 cells (human breast cancer cell line))
CC[C@H](C)[C@@H]1NC(=O)[C@H](CC(=O)O)NC(=O)[C@H](C(C)C)NC(=O)[C@H](C)NC(=O)[C@H](Cc2c[nH]cn2)NC(=O)[C@H](C)NC(=O)[C@@H](NC(C)=O)CSSC[C@@H](C(N)=O)NC1=O (Ac-CAHAVDIC-NH2; disulfide 1-8)	INACTIVE	–	–	–	–	–	–	–
CC(=O)N[C@H]1CSSC[C@@H](C(N)=O)NC(=O)[C@H](CC(=O)O)NC(=O)[C@H](C(C)C)NC(=O)[C@H](C)NC(=O)[C@H](Cc2c[nH]cn2)NC(=O)[C@H](C)NC1=O [N—Ac—CAHAVDC—NH2, N-Ac-Cys-Ala-His-Ala-Val-Asp-Cys-NH2] (Ac-CAHAVDC-NH2; disulfide 1-7)	INACTIVE	complete abrogation of E-cadherin specific activity	–	–	–	–	–	–
CC(=O)N[C@H]1CSSC[C@@H](C(N)=O)NC(=O)[C@H](C(C)C)NC(=O)[C@H](C)NC(=O)[C@H](Cc2c[nH]cn2)NC1=O [N—Ac—CHAVC—NH2, N-Ac-Cys-His-Ala-Val-Cys-NH2]	–	–	E-cadherin expression is greatly reduced; also recorded: expressed greatly reduced levels of E-cadherin	NRK cells retract from one another; also recorded: disrupted NRK cell adhesion	distribution of E-cadherin is non-contiguous; also recorded: reduced E-cadherin staining with a stitched appearance	> 100 µM	> 100 µM	–
CC(=O)N[C@H]1CSSC[C@@H](C(N)=O)NC(=O)[C@H](C(C)C)NC(=O)CNC(=O)[C@H](Cc2c[nH]cn2)NC1=O [N—Ac—CHGVC—NH2, reference compound]	–	–	expressed E-cadherin	had no affect on cell adhesion	displayed E-cadherin staining concentrated at points of cell-cell contact and formed a tightly adherent monolayer	> 100 µM	–	> 100 µM
